Test results from patent publication US20260108513A1 (Pfizer Inc., priority 2022, published 2026).

Test system: mCRPC patients
Assay: TALAPRO-2 Part 2: safety, adverse events and supportive care (safety population)
Format: in vivo, human
Conditions: talazoparib+enzalutamide group
Text: This population was the primary population for evaluating safety.
Treatment-emergent is defined as the time between the first dose of study treatment to 28 days after the last dose of the last study treatment, or before any new antineoplastic therapy, whichever occurs first.

Cn1ncnc1[C@H]1c2n[nH]c(=O)c3cc(F)cc(c23)N[C@@H]1c1ccc(F)cc1 [talazoparib, (8S,9R)-5-fluoro-8-(4-fluorophenyl)-9-(1-methyl-1H-1,2,4-triazol-5-yl)-8,9-dihydro-2H-pyrido[4,3,2-de]phthalazin-3(7H)-one]
median time to onset of first G≥3 anemia: 3.3 months | recurrent G3-4 anemia: 20.6%
